Values after ≈ are worked out from the molar mass of the structure shown.

A short description of data set [1]: Cmax in ICR mouse at 25 mg/kg, po. The data set is classed as ADME, organism-based. More on the design: dose 25 mg/kg, route oral. The settings on record: in vivo.
The subject of data set [2] is Staphylococcus epidermidis. The data set can be described thus: Antibacterial activity against methicillin-resistant Staphylococcus epidermidis. It is filed as functional.
Data set [3] in a line: Cytotoxicity against African green monkey Vero cells assessed as reduction in cell viability after 72 hrs by MTT assay. The data set is classed as cell-based. The note with it: chlorocebus sabaeus, Vero cells.
For data set [4], the system named is Mycobacterium tuberculosis. The data set can be described thus: Antitubercular activity against Mycobacterium tuberculosis H37Rv. The data set is classed as functional.
In another data set the test system is Enterococcus faecalis. Put plainly: Antibacterial activity against Enterococcus faecalis. The data set is classed as functional.
The subject of data set [5] is Staphylococcus aureus. Put plainly: Antibacterial activity against methicillin-resistant Staphylococcus aureus. The data set is classed as functional.
Data set [6] concerns Acinetobacter calcoaceticus. Put plainly: Antibacterial activity against Acinetobacter calcoaceticus. The data set is classed as functional.
The test system of a further data set is Enterobacter cloacae. Put plainly: Antibacterial activity against Enterobacter cloacae. The data set is classed as functional.
The subject of another data set is Proteus mirabilis. The data set can be described thus: Antibacterial activity against Proteus mirabilis. It is filed as functional.
A short description of data set [7]: Half life in ICR mouse at 25 mg/kg, po. It is filed as ADME, organism-based. The note with it: in vivo.
Data set [8] can be described thus: Tmax in ICR mouse at 25 mg/kg, po. The settings on record: in vivo. It is filed as ADME, organism-based.
In data set [9] the test system is Staphylococcus aureus. Put plainly: Antibacterial activity against methicillin-sensitive Staphylococcus aureus. It is filed as functional.
The subject of the next data set is Klebsiella aerogenes. Put plainly: Antibacterial activity against Enterobacter aerogenes. The data set is classed as functional.
In the next data set the test system is Citrobacter freundii. Put plainly: Antibacterial activity against Citrobacter freundii. It is filed as functional.
Data set [10] is described as follows: AUC (0 to infinity) in ICR mouse at 25 mg/kg, po. The note with it: in vivo. Further details: dose 25 mg/kg, time infinity, route oral. The data set is classed as ADME, organism-based.
Data set [11] in a line: Selectivity index, ratio of CC50 for African green monkey Vero cells to MIC for Mycobacterium tuberculosis H37Rv. It is filed as toxicity. The settings on record: read-out: Selectivity Index.
Another data set relates to Pseudomonas aeruginosa. Put plainly: Antibacterial activity against Pseudomonas aeruginosa ATCC 27853. It is filed as functional.
The test system of a further data set is Klebsiella pneumoniae. Put plainly: Antibacterial activity against Klebsiella pneumoniae. It is filed as functional.
Data set [12] can be described thus: Metabolic stability in mouse assessed as half life. It is filed as ADME.
The subject of data set [13] is Staphylococcus epidermidis. The data set can be described thus: Antibacterial activity against methicillin-sensitive Staphylococcus epidermidis. The data set is classed as functional.
For the next data set, the system named is Enterococcus faecium. Put plainly: Antibacterial activity against Enterococcus faecium. It is filed as functional.
A further data set relates to Escherichia coli. The data set can be described thus: Antibacterial activity against Escherichia coli. The data set is classed as functional.

Usually Cmax stands for the peak of the concentration-time curve. By MIC90 is commonly meant an inhibitory concentration at the 90% level, which refers to growth in some studies and to a panel of isolates in others. Usually CC50 stands for the concentration that lowers cell viability or growth by half. Usually MIC stands for the smallest concentration in the dilution series that meets the test's criterion for growth inhibition. In general, half-life refers to how long it takes for the measured level to halve. Broadly, the Tmax is the time from dosing to the highest level. Usually AUC(0-inf) stands for the area under the concentration-time curve extrapolated to infinity. In the case of `CCOC(=O)c1c(-c2ccc(OC)cc2)oc2ccc(OCCCCN3C(=O)/C(=N\OC)c4ccccc43)cc12`, the Cmax in [1] worked out at 927 ng/mL. In addition, the MIC90 was 0.5 µg/mL (≈ 0.922 µM) in [2]; 1 µg/mL (≈ 1.84 µM) against Enterococcus faecalis; 1 µg/mL (≈ 1.84 µM) with Staphylococcus aureus [5]; 1 µg/mL (≈ 1.84 µM) in data set [6]; 0.25 µg/mL (≈ 0.461 µM) in the data set with Enterobacter cloacae; 0.125 µg/mL (≈ 0.23 µM) with Proteus mirabilis. The MIC90 turned out to be 1 µg/mL (≈ 1.84 µM) with Staphylococcus aureus [9]; 0.06 µg/mL (≈ 0.111 µM) against Klebsiella aerogenes; 0.25 µg/mL (≈ 0.461 µM) against Citrobacter freundii; 4 µg/mL (≈ 7.37 µM) with Pseudomonas aeruginosa; 0.25 µg/mL (≈ 0.461 µM) in the data set on Klebsiella pneumoniae; 0.125 µg/mL (≈ 0.23 µM) in data set [13]. Moreover, the MIC90 against Enterococcus faecium came to 8 µg/mL (≈ 14.7 µM); against Escherichia coli, 0.5 µg/mL (≈ 0.922 µM). Also, the CC50 at 72 h in data set [3] was found to be 32 µg/mL (≈ 59 µM). Moreover, the MIC in data set [4] was < 0.016 µg/mL. Moreover, the half-life was 3.33 h in data set [7] and 0.32 h in data set [12]. Also, the Tmax in data set [8] amounted to 1.65 h. This compound came in with an AUC(0-inf) in data set [10] of 3020 ng·h/mL. The selectivity ratio in data set [11] was > 2000.
